Experimental data taken from EP4596547A1, “HETEROCYCLIC COMPOUND AND HARMFUL ARTHROPOD-CONTROLLING COMPOSITION CONTAINING SAME” (priority 2022, dated 2024).

Assays:
Type in all cases: in vivo
[1] = system: cotton aphids (Aphis gossypii); assay: Test method 1: foliar spray on cucumber seedlings inoculated with cotton aphids (formulation per Formulation Example 1); conditions: 120 h, 500 ppm, sprayed 10 mL/seedling one day after inoculation, surviving insects examined after 5 days, 25°C, read-out: control value
[2] = system: common cutworm (Spodoptera litura); assay: Test method 3: sprayed cabbage foliage cut out, second instar larvae of common cutworm released; conditions: foliar, 120 h, sprayed 20 mL/seedling, five second instar larvae, after 5 days, 25°C
Description: (§1) A test compound is formed into a formulation according to the method described in Formulation Example 1, and water containing 0.03% by volume of Shindain (registered trademark) is added thereto to prepare a diluted solution containing the test compound at a predetermined concentration.
(§2) A cabbage (Brassicae oleracea) seedling (2 to 3 true leaf stage) planted in a container is sprayed with the diluted solution at a rate of 20 mL/seedling. Thereafter, the foliage portion of the seedling is cut out and placed in a container on which filter paper is laid. Thereto are released five second instar larvae of common cutworm (Spodoptera litura). After 5 days, the number of surviving insects is counted, and the mortality is determined from the following equation. [formula]

[3] = system: diamondback moth (Plutella xylostella); assay: Test method 4: sprayed cabbage foliage cut out, second instar larvae of diamondback moth released; conditions: foliar, 120 h, sprayed 20 mL/seedling, five second instar larvae, after 5 days, 25°C
Description: as §1
as §2, with “diamondback moth (Plutella xylostella).” for “common cutworm (Spodoptera litura).”

[4] = system: Musca domestica; assay: Test method 8: container inner surface coated with test compound, Musca domestica; conditions: 24 h, 40 mg/m^2 (800 ppm acetone solution), five adult female, 1 days, 25°C
Description: An acetone solution prepared such that the amount of the test compound is 800 ppm is poured into a container having an internal volume of 20 mL, and the inner surface of the container is uniformly coated such that the amount of the test compound is 40 mg/m^2, and then dried.
Five adult female Musca domestica are placed in the container, and the lid is closed. After a lapse of a predetermined time, the state of Musca domestica is examined, and the mortality is determined. The mortality is calculated by the following equation. [formula]

[5] = system: diamondback moth (Plutella xylostella); assay: Test method 10: sprayed cabbage seedling, third instar larvae of diamondback moth released; conditions: 144 h, sprayed 20 mL/seedling, 10 third instar larvae, after 6 days, 25°C
Description: (§3) A test compound is formed into a formulation according to the method described in Formulation Example 5, and water containing 0.03% by volume of Shindain (registered trademark) is added thereto to prepare a diluted solution containing the test compound at a predetermined concentration.
(§4) A cabbage (Brassicae oleracea) seedling (3 to 4 true leaf stage) planted in a container is sprayed with the diluted solution at a rate of 20 mL/seedling. Thereafter, 10 third instar larvae of diamondback moth (Plutella xylostella) are released. After 6 days, the number of surviving insects is counted, and the mortality is determined from the following equation. [formula]

[6] = system: cotton aphids (Aphis gossypii); assay: Test method 11: foliar spray on cucumber seedlings inoculated with cotton aphids (formulation per Formulation Example 5); conditions: 120 h, sprayed 10 mL/seedling one day after inoculation, after 5 days, 25°C, read-out: control value
[7] = system: Culex pipiens pallens; assay: Test method 12: last-instar larvae of Culex pipiens pallens released into diluted solution; conditions: 24 h, 30 last-instar larvae, one day later, 25°C
Description: The test compound is formulated according to the method described in Formulation Example 1, and water is added thereto to prepare a diluted solution containing the test compound at a predetermined concentration. 30 last-instar larvae of Culex pipiens pallens are released into the diluted solution, and the state of the larvae of Culex pipiens is examined one day later to determine the Mortality. The mortality is calculated by the following equation. [formula]

[8] = system: Aphis gossypii; assay: Test method 2: soil irrigation of cucumber seedlings, later inoculated with Aphis gossypii; conditions: 144 h, irrigated 5 mL/seedling, inoculated after 7 days, surviving insects examined after 6 days, 25°C, read-out: control value
Description: The test compound is formulated according to the method described in Formulation Example 5, and water is added thereto to prepare a diluted solution containing the test compound at a predetermined concentration. A cucumber (Cucumis sativus) seedling (second true leaf stage) planted in a container is irrigated with the diluted solution at a rate of 5 mL/seedling. After 7 days, the leaf surface of this seedling is inoculated with about 30 Aphis gossypii (whole stage). After 6 days, the number of surviving insects is examined, and the control value is determined by the following formula. [formula] • Characters in the formula represent the following meanings. • Cb: number of test insects in a non-treated section • Cai: number of surviving insects in a non-treated section at the time of investigation • Tb: number of test insects in a treated section • Tai: number of surviving insects in a treated section at the time of investigation Herein, the non-treated section means a section that is subjected to the same operation as that of the treated section except that the test compound is not used.

[9] = system: Blattella germanica; assay: Test method 6: container inner surface coated with test compound, Blattella germanica; conditions: 72 h
Description: An acetone solution prepared such that the amount of the test compound is 800 ppm is poured into a container having an internal volume of 50 mL, and the inner surface of the container is uniformly coated such that the amount of the test compound is 40 mg/m^2, and then dried.
Five male imagoes of Blattella germanica are placed in the container, and the lid is closed. After a lapse of a predetermined time, the state of Blattella germanica is examined, and the mortality is determined. The mortality is calculated by the following equation. [formula]

[10] = system: common cutworm (Spodoptera litura); assay: Test method 9: sprayed cabbage seedling, third instar larvae of common cutworm released; conditions: 144 h
Description: as §3
as §4, with “common cutworm (Spodoptera litura)” for “diamondback moth (Plutella xylostella)”

[11] = system: Haemaphysalis longicornis; assay: Test method 7: container inner surface coated with test compound, Haemaphysalis longicornis nymphs; conditions: 48 h, 100 mg/m^2 (2000 ppm acetone solution), five nymphs, 2 days, 25°C
Description: An acetone solution prepared such that the amount of the test compound is 2000 ppm is poured into a container having an internal volume of 20 mL, and the inner surface of the container is uniformly coated such that the amount of the test compound is 100 mg/m^2, and then dried.
Five nymphs of Haemaphysalis longicornis are placed in the container, and the lid is closed. After a lapse of a predetermined time, the state of Haemaphysalis longicornis is examined to determine the mortality. The mortality is calculated by the following equation. [formula]

[12] = system: Western corn rootworm (Diabrotica virgifera virgifera); assay: whole plant or invertebrate; conditions: 120 h
Description: Each 1 mg of the test compound is dissolved in 50 µL of a mixed solution of polyoxyethylene sorbitan monococoate and acetone (5 : 95 (volume ratio)). Water containing 0.03% by volume of Shindain (registered trademark) is added thereto to prepare a diluted solution containing the test compound at a predetermined concentration.
Young seedlings of maize (Zea mays) are immersed in the diluted solution for 30 seconds. Thereafter, the two […] are placed in a petri dish (90 mm diameter), and thereto are released 10 second instar larvae of Western corn rootworm (Diabrotica virgifera virgifera). After 5 days, the number of dead insects is counted, and the mortality is determined from the following equation. [formula]

Row | Structure (SMILES) | mortality at 500 ppm [1] [%] | mortality at 500 ppm [2] [%] | mortality at 500 ppm [3] [%] | mortality at 40 mg/m2, 40 mg/m2 [4] [%] | mortality at 200 ppm [5] [%] | mortality at 50 ppm [6] [%] | mortality at 200 ppm [6] [%] | mortality at 3.5 ppm [7] [%] | mortality at 1000 ppm [8] [%] | mortality at 40 mg/m2, 40 mg/m2 [9] [%] | mortality at 200 ppm [10] [%] | mortality at 50 ppm [5] [%] | mortality at 100 mg/m2, 100 mg/m2 [11] [%] | mortality at 200 ppm [12] [%]
1 | CCSc1c(N(C)C(=O)c2ccc(C(F)(F)F)s2)nc2ccc(I)cn12 [compound 6] | ≥ 90 | ≥ 80 | ≥ 80 | ≥ 80 | ≥ 80 | ≥ 90 | ≥ 90 | > 90 | – | – | – | – | – | –
2 | CCSc1c(N(C)C(=O)c2cc(C(F)(F)F)n(C)n2)nc2ccc(I)cn12 [compound 16] | ≥ 90 | ≥ 80 | ≥ 80 | ≥ 80 | – | – | ≥ 90 | > 90 | ≥ 90 | – | – | – | – | –
3 | CCSc1c(N(C)C(=O)c2cnn(C(F)(F)F)c2)nc2ccc(I)cn12 [compound 23] | ≥ 90 | – | ≥ 80 | – | – | – | ≥ 90 | > 90 | – | ≥ 80 | ≥ 80 | – | – | –
4 | CCS(=O)(=O)c1c(N(C)C(=O)c2cnc(C(F)(F)F)s2)nc2ccc(I)cn12 [compound 40] | ≥ 90 | ≥ 80 | ≥ 80 | – | ≥ 80 | ≥ 90 | ≥ 90 | > 90 | ≥ 90 | – | – | ≥ 80 | – | –
5 | CC[S+]([O-])c1c(N(C)C(=O)c2cnc(C(F)(F)F)s2)nc2cc(I)ccn12 (stereo not drawn) [compound 45] | ≥ 90 | – | – | – | – | ≥ 90 | ≥ 90 | > 90 | – | – | – | – | ≥ 80 | –
6 | CCS(=O)(=O)c1c(N(C)C(=O)c2cc(C(F)(F)F)n(C)n2)nc2ccc(I)cn12 [compound 52] | ≥ 90 | – | ≥ 80 | ≥ 80 | ≥ 80 | ≥ 90 | ≥ 90 | > 90 | ≥ 90 | – | – | ≥ 80 | – | ≥ 80
